The results in this text go back to patent US10532053B2, “Histone deacetylase inhibitor, and preparation method and use thereof” (GUANGDONG ZHONGSHENG PHARMACEUTICAL CO., LTD, priority 2015, dated 2020).

Structures are written as SMILES. Bounds are passed on as bounds.

One assay deals with T1, HDAC1 (Homo sapiens, UniProt Q13547).
T1 construct: purchased BPS Bioscience
T1 sequence (Q13547 whole entry): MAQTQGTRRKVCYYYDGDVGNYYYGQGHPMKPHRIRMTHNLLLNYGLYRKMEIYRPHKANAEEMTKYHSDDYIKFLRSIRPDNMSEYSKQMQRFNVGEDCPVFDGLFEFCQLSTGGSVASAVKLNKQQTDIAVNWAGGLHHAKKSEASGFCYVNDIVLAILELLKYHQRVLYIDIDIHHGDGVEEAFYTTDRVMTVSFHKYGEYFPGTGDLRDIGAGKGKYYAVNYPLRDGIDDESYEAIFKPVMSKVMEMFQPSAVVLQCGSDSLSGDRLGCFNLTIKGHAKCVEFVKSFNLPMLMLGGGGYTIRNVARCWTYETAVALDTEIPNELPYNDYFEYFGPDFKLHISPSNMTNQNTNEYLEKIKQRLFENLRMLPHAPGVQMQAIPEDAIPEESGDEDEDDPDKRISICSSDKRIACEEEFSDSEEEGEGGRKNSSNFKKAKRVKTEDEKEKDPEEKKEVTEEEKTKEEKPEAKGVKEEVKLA
The experiment in a line: HDAC inhibitory activity, fluorescence-coupled acetylated peptide substrate assay (Lys-Ac-AMC). The format is biochemical. As to conditions: Table 2.
Take `Cc1nc(N(C)c2ccc(OCC(=O)NO)cc2)c2ccccc2n1` [II-1, N-hydroxy-2-(4-(methyl(2-methyl-4-quinazolinyl)amino)phenoxy)acetamide]: the IC50 fell in the range of 100 to 1000 nM.
Turning to `Cc1nc(N(C)c2ccc(OCCCCC(=O)NO)cc2)c2ccccc2n1` [II-3, N-hydroxy-5-(4-(methyl(2-methyl-4-quinazolinyl)amino)phenoxy)pentanamide], the IC50 was 100 to 1000 nM.

Still in this assay, the particulars now being: Table 3.
For the molecule `Cc1nc(N(C)c2ccc(OCC(=O)NO)cc2)c2ccccc2n1` [II-1, N-hydroxy-2-(4-(methyl(2-methyl-4-quinazolinyl)amino)phenoxy)acetamide], the IC50 was determined as 172 nM.
The same measure, in the same setting: the value for `Cc1nc(N(C)c2ccc(OCCCCC(=O)NO)cc2)c2ccccc2n1` [II-3, N-hydroxy-5-(4-(methyl(2-methyl-4-quinazolinyl)amino)phenoxy)pentanamide] was 451 nM.

A further assay addresses T2, HDAC6 (Homo sapiens, UniProt Q9UBN7).
T2 sequence (Q9UBN7 1-1215): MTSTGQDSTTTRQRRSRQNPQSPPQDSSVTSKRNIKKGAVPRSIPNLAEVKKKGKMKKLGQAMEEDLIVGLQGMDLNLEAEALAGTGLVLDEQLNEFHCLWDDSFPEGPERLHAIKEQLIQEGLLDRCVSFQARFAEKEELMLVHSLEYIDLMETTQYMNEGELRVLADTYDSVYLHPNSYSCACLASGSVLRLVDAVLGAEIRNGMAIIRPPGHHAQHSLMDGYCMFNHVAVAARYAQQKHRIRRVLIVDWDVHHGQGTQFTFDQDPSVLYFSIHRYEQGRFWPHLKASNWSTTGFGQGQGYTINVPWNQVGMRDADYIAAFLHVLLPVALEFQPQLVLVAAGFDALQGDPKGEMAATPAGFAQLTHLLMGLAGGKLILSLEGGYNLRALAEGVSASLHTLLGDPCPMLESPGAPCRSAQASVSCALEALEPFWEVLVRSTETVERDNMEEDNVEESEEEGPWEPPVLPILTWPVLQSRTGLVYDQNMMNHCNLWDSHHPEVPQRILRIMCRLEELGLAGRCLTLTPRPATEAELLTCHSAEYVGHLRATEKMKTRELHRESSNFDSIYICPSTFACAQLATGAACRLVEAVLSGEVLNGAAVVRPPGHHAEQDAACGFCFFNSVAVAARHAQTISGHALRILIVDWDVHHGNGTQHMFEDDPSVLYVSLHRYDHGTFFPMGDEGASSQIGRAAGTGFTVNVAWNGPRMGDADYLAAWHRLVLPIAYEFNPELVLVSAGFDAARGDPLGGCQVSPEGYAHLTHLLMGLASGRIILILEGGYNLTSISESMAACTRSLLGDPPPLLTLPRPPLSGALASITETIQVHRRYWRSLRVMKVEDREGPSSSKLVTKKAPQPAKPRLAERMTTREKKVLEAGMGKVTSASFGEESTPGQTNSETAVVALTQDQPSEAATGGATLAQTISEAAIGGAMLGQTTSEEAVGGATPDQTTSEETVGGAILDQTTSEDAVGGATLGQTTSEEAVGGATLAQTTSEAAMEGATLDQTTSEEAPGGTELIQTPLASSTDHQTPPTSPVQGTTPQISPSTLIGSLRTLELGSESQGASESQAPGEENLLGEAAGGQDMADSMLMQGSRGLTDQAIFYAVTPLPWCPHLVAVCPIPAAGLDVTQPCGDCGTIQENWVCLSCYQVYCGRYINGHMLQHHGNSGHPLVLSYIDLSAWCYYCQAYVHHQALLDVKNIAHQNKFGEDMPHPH
The assay is described as follows: HDAC inhibitory activity, fluorescence-coupled acetylated peptide substrate assay. It counts as biochemical. The note with it: Table 2.
The molecule `Cc1nc(N(C)c2ccc(OCC(=O)NO)cc2)c2ccccc2n1` [II-1, N-hydroxy-2-(4-(methyl(2-methyl-4-quinazolinyl)amino)phenoxy)acetamide] displayed an IC50 of under 10 nM.
The same measure, in the same setting: the value for `Cc1nc(N(C)c2ccc(OCCCCC(=O)NO)cc2)c2ccccc2n1` [II-3, N-hydroxy-5-(4-(methyl(2-methyl-4-quinazolinyl)amino)phenoxy)pentanamide] was 10 to 100 nM.

Still in this assay, the particulars now being: Table 3.
Molecule `Cc1nc(N(C)c2ccc(OCC(=O)NO)cc2)c2ccccc2n1` [II-1, N-hydroxy-2-(4-(methyl(2-methyl-4-quinazolinyl)amino)phenoxy)acetamide] displayed an IC50 of 8.6 nM.
The same measure, in the same setting: the value for `Cc1nc(N(C)c2ccc(OCCCCC(=O)NO)cc2)c2ccccc2n1` [II-3, N-hydroxy-5-(4-(methyl(2-methyl-4-quinazolinyl)amino)phenoxy)pentanamide] was 57 nM.

Staying with this assay, now noted: ratio of IC50 HDAC1 to HDAC6.
Regarding `Cc1nc(N(C)c2ccc(OCC(=O)NO)cc2)c2ccccc2n1` [II-1, N-hydroxy-2-(4-(methyl(2-methyl-4-quinazolinyl)amino)phenoxy)acetamide], the “Selection Ratio HDAC1/6” value came out at 20.0.
For `Cc1nc(N(C)c2ccc(OCCCCC(=O)NO)cc2)c2ccccc2n1` [II-3, N-hydroxy-5-(4-(methyl(2-methyl-4-quinazolinyl)amino)phenoxy)pentanamide], the “Selection Ratio HDAC1/6” value is given as 7.9.

Staying with this assay, now noted: ratio of IC50 HDAC8 to HDAC6.
Consider `Cc1nc(N(C)c2ccc(OCC(=O)NO)cc2)c2ccccc2n1` [II-1, N-hydroxy-2-(4-(methyl(2-methyl-4-quinazolinyl)amino)phenoxy)acetamide], for which the “Selection Ratio HDAC8/6” value was 137.3.
Still for that read-out and setting: the value for `Cc1nc(N(C)c2ccc(OCCCCC(=O)NO)cc2)c2ccccc2n1` [II-3, N-hydroxy-5-(4-(methyl(2-methyl-4-quinazolinyl)amino)phenoxy)pentanamide] was 29.8.

The subject of the next assay is Human cervical cancer cell Hela. The experiment in a line: Cell proliferative activity (MTT / cck-8). It counts as cell-based. As to conditions: incubated for 96 hours, read-out: Half-Inhibitory Concentration IC50 Human cervical cancer cell Hela. The protocol:
(§1) Tumor cell line A375: human melanoma cell; H460: lung adenocarcinoma cell; Hela: human cervical cancer cell; HepG2: human liver cancer cell; and SKOV-3: human ovarian cancer cell, were all purchased from ATCC and cultured to logarithmic phase according to the cultivation protocol recommended by ATCC. The cells in the logarithmic phase were plated onto a 96-well plate at 2000-3000 cells/well; in the case of adherent cells, the cells should be adherent to the wall. […] After that, the cell proliferative activity was determined by MTT assay for the tumor cells representing the solid tumor model and by cck-8 assay for the tumor cells representing the hematologic tumor model.
As to `Cc1nc(N(C)c2ccc(OCC(=O)NO)cc2)c2ccccc2n1` [II-1, N-hydroxy-2-(4-(methyl(2-methyl-4-quinazolinyl)amino)phenoxy)acetamide], the IC50 was in the range of 100 to 1000 nM.
Still for that read-out and setting: the result for `Cc1nc(N(C)c2ccc(OCCCCC(=O)NO)cc2)c2ccccc2n1` [II-3, N-hydroxy-5-(4-(methyl(2-methyl-4-quinazolinyl)amino)phenoxy)pentanamide] reads over 1000 nM.

The next assay has as its system Human liver cancer cell HepG2. The experiment in a line: Cell proliferative activity (MTT / cck-8). As to conditions: incubated for 96 hours, read-out: Half-Inhibitory Concentration IC50 Human liver cancer cell HepG2. The format is cell-based. The protocol: as §1
Regarding `Cc1nc(N(C)c2ccc(OCC(=O)NO)cc2)c2ccccc2n1` [II-1, N-hydroxy-2-(4-(methyl(2-methyl-4-quinazolinyl)amino)phenoxy)acetamide], the IC50 was 100 to 1000 nM.
The same measure, in the same setting: the result for `Cc1nc(N(C)c2ccc(OCCCCC(=O)NO)cc2)c2ccccc2n1` [II-3, N-hydroxy-5-(4-(methyl(2-methyl-4-quinazolinyl)amino)phenoxy)pentanamide] reads over 1000 nM.

For the next assay, the system named is Human lung cancer cell H460. The assay is described as follows: Cell proliferative activity (MTT / cck-8). The format is cell-based. As to conditions: NCI-H460, incubated for 96 hours, read-out: Half-Inhibitory Concentration IC50 Human lung cancer cell H460. As for the experimental part: as §1
As to `Cc1nc(N(C)c2ccc(OCC(=O)NO)cc2)c2ccccc2n1` [II-1, N-hydroxy-2-(4-(methyl(2-methyl-4-quinazolinyl)amino)phenoxy)acetamide], the IC50 was in the range of 100 to 1000 nM.
Still for that read-out and setting: the result for `Cc1nc(N(C)c2ccc(OCCCCC(=O)NO)cc2)c2ccccc2n1` [II-3, N-hydroxy-5-(4-(methyl(2-methyl-4-quinazolinyl)amino)phenoxy)pentanamide] reads 100 to 1000 nM.

The next assay relates to Human melanoma A375. The experiment in a line: Cell proliferative activity (MTT / cck-8). As to conditions: A-375, incubated for 96 hours, read-out: Half-Inhibitory Concentration IC50 Human melanoma A375. The format is cell-based. The protocol:
as §1
With `Cc1nc(N(C)c2ccc(OCC(=O)NO)cc2)c2ccccc2n1` [II-1, N-hydroxy-2-(4-(methyl(2-methyl-4-quinazolinyl)amino)phenoxy)acetamide], the IC50 is over 1000 nM.
Still for that read-out and setting: the result for `Cc1nc(N(C)c2ccc(OCCCCC(=O)NO)cc2)c2ccccc2n1` [II-3, N-hydroxy-5-(4-(methyl(2-methyl-4-quinazolinyl)amino)phenoxy)pentanamide] reads over 1000 nM.

The next assay deals with Human ovarian cancer cell SKOV-3. The experiment in a line: Cell proliferative activity (MTT / cck-8). It counts as cell-based. As to conditions: SK-OV-3, incubated for 96 hours, read-out: Half-Inhibitory Concentration IC50 Human ovarian cancer cell SKOV-3. As for the experimental part: as §1
Regarding `Cc1nc(N(C)c2ccc(OCC(=O)NO)cc2)c2ccccc2n1` [II-1, N-hydroxy-2-(4-(methyl(2-methyl-4-quinazolinyl)amino)phenoxy)acetamide], the IC50 was in the range of 100 to 1000 nM.
Turning to `Cc1nc(N(C)c2ccc(OCCCCC(=O)NO)cc2)c2ccccc2n1` [II-3, N-hydroxy-5-(4-(methyl(2-methyl-4-quinazolinyl)amino)phenoxy)pentanamide], the IC50 fell in the range of 100 to 1000 nM.

In another assay the target is T3, HDAC8 (Homo sapiens, UniProt Q9BY41).
T3 sequence (Q9BY41 1-377): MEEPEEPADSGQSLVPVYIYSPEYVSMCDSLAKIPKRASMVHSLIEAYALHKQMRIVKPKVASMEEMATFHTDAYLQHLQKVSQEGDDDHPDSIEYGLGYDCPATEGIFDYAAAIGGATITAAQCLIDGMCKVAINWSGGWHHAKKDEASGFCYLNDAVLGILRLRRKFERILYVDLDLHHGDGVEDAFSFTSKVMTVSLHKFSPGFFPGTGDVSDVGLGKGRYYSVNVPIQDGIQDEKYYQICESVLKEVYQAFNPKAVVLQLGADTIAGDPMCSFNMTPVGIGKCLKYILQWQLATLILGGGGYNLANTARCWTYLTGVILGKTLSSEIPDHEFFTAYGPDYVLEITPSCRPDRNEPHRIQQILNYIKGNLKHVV
The assay is described as follows: HDAC inhibitory activity, fluorescence-coupled acetylated peptide substrate assay. The note with it: IC50 HDAC8, Table 2.
Molecule `Cc1nc(N(C)c2ccc(OCC(=O)NO)cc2)c2ccccc2n1` [II-1, N-hydroxy-2-(4-(methyl(2-methyl-4-quinazolinyl)amino)phenoxy)acetamide] showed an IC50 of over 1000 nM.
`Cc1nc(N(C)c2ccc(OCCCCC(=O)NO)cc2)c2ccccc2n1` [II-3, N-hydroxy-5-(4-(methyl(2-methyl-4-quinazolinyl)amino)phenoxy)pentanamide] returned an IC50 of over 1000 nM.

Staying with this assay, now noted: read-out: IC50 HDAC8; Table 3.
For the molecule `Cc1nc(N(C)c2ccc(OCC(=O)NO)cc2)c2ccccc2n1` [II-1, N-hydroxy-2-(4-(methyl(2-methyl-4-quinazolinyl)amino)phenoxy)acetamide], the IC50 was 1180 nM.
As for `Cc1nc(N(C)c2ccc(OCCCCC(=O)NO)cc2)c2ccccc2n1` [II-3, N-hydroxy-5-(4-(methyl(2-methyl-4-quinazolinyl)amino)phenoxy)pentanamide], the IC50 came out at 1700 nM.
